Measured values as given in ChEMBL document CHEMBL1201862, “PubChem BioAssay data set” (2004).
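How tested: cells in 96-well plates exposed to compound for 48 hours at five concentrations. GI50 marks 50% less growth.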 Active and inactive are the calls of the source. Cut-off read from the data, not from the text of the source: active = GI50 up to about 1.1 µM and inactive = higher.

What was measured:
Test in all cases: NCI tumour cell line growth inhibition, 48 h
[1] = test system: EKVX
[2] = test system: IGROV-1
[3] = test system: NCI-H522
[4] = test system: 786-0
[5] = test system: U-251
[6] = test system: PC-3
[7] = test system: HCC 2998
[8] = test system: LOX IMVI
[9] = test system: A549
[10] = test system: T47D
[11] = test system: SF-539
[12] = test system: KM12
[13] = test system: SF-268
[14] = test system: SNB-19
[15] = test system: M14
[16] = test system: OVCAR-3
[17] = test system: UACC-257
[18] = test system: SN12C
[19] = test system: SK-MEL-2
[20] = test system: OVCAR-4
[21] = test system: SNB-75
[22] = test system: NCI-H226
[23] = test system: RXF 393
[24] = test system: HOP-62
[25] = test system: ACHN
[26] = test system: DU-145
[27] = test system: SW-620
[28] = test system: OVCAR-8
[29] = test system: TK-10
[30] = test system: HCT-116
[31] = test system: MDA-MB-231
[32] = test system: NCI/ADR-RES
[33] = test system: BT-549
[34] = test system: NCI-H460
[35] = test system: HOP-92
[36] = test system: SK-MEL-28
[37] = test system: Hs-578T
[38] = test system: CCRF-CEM
[39] = test system: K562
[40] = test system: SK-MEL-5
[41] = test system: SR
[42] = test system: CAKI-1
[43] = test system: MCF7
[44] = test system: HCT-15
[45] = test system: Malme-3M
[46] = test system: A498
[47] = test system: OVCAR-5
[48] = test system: HL-60
[49] = test system: MOLT-4
[50] = test system: UO-31
[51] = test system: NCI-H23
[52] = test system: RPMI-8226
[53] = test system: SF-295
[54] = test system: HT-29

Compound: Cc1cc2c([nH]c3ccccc32)c(O)c1-c1c(C)cc2c([nH]c3ccccc32)c1O
- GI50 [1]: 13.8 µM (inactive)
- GI50 [2]: 12.4 µM (inactive)
- GI50 [3]: 16.7 µM (inactive)
- GI50 [4]: 13.7 µM (inactive)
- GI50 [5]: 11.5 µM (inactive)
- GI50 [6]: 13.2 µM (inactive)
- GI50 [7]: 10.6 µM (inactive)
- GI50 [8]: 16.7 µM (inactive)
- GI50 [9]: 12.1 µM (inactive)
- GI50 [10]: 15.5 µM (inactive)
- GI50 [11]: 17 µM (inactive)
- GI50 [12]: 10.1 µM (inactive)
- GI50 [13]: 13.8 µM (inactive)
- GI50 [14]: 16.9 µM (inactive)
- GI50 [15]: 14.8 µM (inactive)
- GI50 [16]: 15.8 µM (inactive)
- GI50 [17]: 16.5 µM (inactive)
- GI50 [18]: 2.48 µM (inactive)
- GI50 [19]: 15.8 µM (inactive)
- GI50 [20]: 15.3 µM (inactive)
- GI50 [21]: 14 µM (inactive)
- GI50 [22]: 18.5 µM (inactive)
- GI50 [23]: 10.5 µM (inactive)
- GI50 [24]: 17.1 µM (inactive)
- GI50 [25]: 14.3 µM (inactive)
- GI50 [26]: 13 µM (inactive)
- GI50 [27]: 22.9 µM (inactive)
- GI50 [28]: 15.7 µM (inactive)
- GI50 [29]: 17.4 µM (inactive)
- GI50 [30]: 14.2 µM (inactive)
- GI50 [31]: 17.5 µM (inactive)
- GI50 [32]: 13.9 µM (inactive)
- GI50 [33]: 18.8 µM (inactive)
- GI50 [34]: 4.57 µM (inactive)
- GI50 [35]: 15.7 µM (inactive)
- GI50 [36]: 30.5 µM (inactive)
- GI50 [37]: 15.3 µM (inactive)

Compound: O=S(=O)(c1cc(Cl)ccc1Cl)N1CCN(c2ccc(Cl)c(Cl)c2)CC1
- GI50 [1]: 32.2 µM (inactive)
- GI50 [2]: 36.8 µM (inactive)
- GI50 [3]: 18.5 µM (inactive)
- GI50 [4]: 17.9 µM (inactive)
- GI50 [5]: 21.7 µM (inactive)
- GI50 [6]: 99.8 µM (inactive)
- GI50 [7]: 62.1 µM (inactive)
- GI50 [8]: > 100 µM (inactive)
- GI50 [9]: 35.7 µM (inactive)
- GI50 [10]: 20.4 µM (inactive)
- GI50 [38]: 44.8 µM (inactive)
- GI50 [39]: 91.6 µM (inactive)
- GI50 [11]: 25.2 µM (inactive)
- GI50 [12]: 28.2 µM (inactive)
- GI50 [13]: 27.3 µM (inactive)
- GI50 [14]: 14.1 µM (inactive)
- GI50 [40]: 22.8 µM (inactive)
- GI50 [15]: 39.6 µM (inactive)
- GI50 [16]: 14.6 µM (inactive)
- GI50 [41]: > 100 µM (inactive)
- GI50 [17]: 33.3 µM (inactive)
- GI50 [42]: 22 µM (inactive)
- GI50 [43]: > 100 µM (inactive)
- GI50 [18]: 78.5 µM (inactive)
- GI50 [44]: > 100 µM
- GI50 [20]: 16.1 µM (inactive)
- GI50 [45]: 37.7 µM (inactive)
- GI50 [46]: 25.5 µM (inactive)
- GI50 [21]: 14 µM (inactive)
- GI50 [22]: 21.7 µM (inactive)
- GI50 [23]: 21 µM (inactive)
- GI50 [47]: > 100 µM (inactive)
- GI50 [48]: > 100 µM (inactive)
- GI50 [49]: > 100 µM (inactive)
- GI50 [50]: 35.8 µM (inactive)
- GI50 [51]: 33.4 µM (inactive)
- GI50 [24]: 18.2 µM (inactive)
- GI50 [52]: > 100 µM (inactive)
- GI50 [25]: 37 µM (inactive)
- GI50 [26]: > 100 µM (inactive)
- GI50 [27]: > 100 µM (inactive)
- GI50 [28]: 23.3 µM (inactive)
- GI50 [29]: 20.6 µM (inactive)
- GI50 [30]: 34.6 µM (inactive)
- GI50 [31]: > 100 µM (inactive)
- GI50 [53]: 24.9 µM (inactive)
- GI50 [33]: 33.3 µM (inactive)
- GI50 [34]: > 10 µM (inactive)
- GI50 [35]: 18 µM (inactive)
- GI50 [54]: 88.1 µM (inactive)
- GI50 [36]: > 100 µM (inactive)
- GI50 [37]: 29.9 µM (inactive)
